Legend:
Test in all cases: relative viability (nuclei count vs DMSO), 5 days (fraction); higher = more cells survive
[1] = compound: O=c1[nH]c2ccccc2n1C1CCN(CCCC(c2ccc(F)cc2)c2ccc(F)cc2)CC1 [Pimozide]
In short: (§1)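 Lung cancer cell lines were seeded into 1536-well plates, kept overnight at 37 °C and pinned with five library-drug doses (not always all listed) spaced by √10. After 5 days, nuclei were Hoechst-stained, imaged at 4× and counted with MetaXpress. Viability is treated-well nuclei over vehicle-well nuclei, taken as a median across plates. Plates needed control CV below 25% and at least one doubling.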

[2] = compound: CC(=O)O[C@@]12CO[C@@H]1C[C@H](O)[C@@]1(C)C(=O)[C@H](O)C3=C(C)[C@@H](OC(=O)[C@H](O)[C@@H](NC(=O)OC(C)(C)C)c4ccccc4)C[C@@](O)([C@@H](OC(=O)c4ccccc4)[C@H]21)C3(C)C [Docetaxel]
In short: as §1

[3] = compound: O=C(O)CCCCC(CCSCc1ccccc1)SCc1ccccc1 [CPI-613]
In short: as §1

[4] = compound: Cc1sc2c(c1C)C(c1ccc(Cl)cc1)=N[C@@H](CC(=O)OC(C)(C)C)c1nnc(C)n1-2 [JQ1]
In short: as §1

[5] = compound: Nc1ccn([C@@H]2O[C@H](CO)[C@@H](O)[C@@H]2O)c(=O)n1 [Cytarabine]
In short: as §1

[6] = compound: Cc1cnc(-c2cnc(NCCNc3ccc(C#N)cn3)nc2-c2ccc(Cl)cc2Cl)[nH]1
In short: as §1

[7] = compound: COc1cc2nccc(Oc3ccc(NC(=O)Nc4cc(C)on4)c(Cl)c3)c2cc1OC [Tivozanib]
In short: as §1

Cell Line | relative viability ([1]; 0.08 µM) | relative viability ([1]; 0.253 µM) | relative viability ([1]; 0.8 µM) | relative viability ([1]; 2.53 µM) | relative viability ([1]; 8 µM) | relative viability ([2]; 0.0002 µM) | relative viability ([2]; 0.000632 µM) | relative viability ([2]; 0.002 µM) | relative viability ([2]; 0.006325 µM) | relative viability ([2]; 0.02 µM) | relative viability ([3]; 5 µM) | relative viability ([3]; 15.81 µM) | relative viability ([3]; 50 µM) | relative viability ([3]; 158.11 µM) | relative viability ([3]; 500 µM) | relative viability ([4]; 0.04 µM) | relative viability ([4]; 0.1265 µM) | relative viability ([4]; 0.4 µM) | relative viability ([4]; 1.265 µM) | relative viability ([4]; 4 µM) | relative viability ([5]; 0.005 µM) | relative viability ([5]; 0.01581 µM) | relative viability ([5]; 0.05 µM) | relative viability ([5]; 0.1581 µM) | relative viability ([5]; 0.5 µM) | relative viability ([6]; 0.08 µM) | relative viability ([6]; 0.253 µM) | relative viability ([6]; 0.8 µM) | relative viability ([6]; 2.53 µM) | relative viability ([7]; 0.005 µM) | relative viability ([7]; 0.01581 µM) | relative viability ([7]; 0.05 µM) | relative viability ([7]; 0.1581 µM) | relative viability ([7]; 0.5 µM)
SK-LU-1 | 1.02 | 1.03 | 0.986 | 0.876 | 0.858 | 0.843 | 0.64 | 0.425 | 0.329 | 0.255 | 1.04 | 0.911 | 0.995 | 0.668 | 0.473 | 1 | 0.91 | 0.91 | 0.377 | 0.238 | 0.853 | 0.868 | 0.776 | 0.433 | 0.322 | 1.12 | 0.967 | 1.06 | 1.14 | 1 | 1.02 | 1.12 | 0.928 | 1.05
LOU-NH91 | 0.785 | 0.924 | 0.916 | 1.04 | 0.896 | 0.898 | 0.758 | 0.473 | 0.369 | 0.354 | 0.926 | 0.951 | 0.982 | 0.913 | 0.842 | 0.989 | 0.801 | 0.637 | 0.626 | 0.462 | 0.955 | 0.918 | 0.723 | 0.7 | 0.584 | 1.01 | 0.924 | 0.94 | 0.976 | 0.865 | 1.04 | 0.982 | 0.814 | 0.945
NCI-H1792 | 0.936 | 0.843 | 0.62 | 0.81 | 0.763 | 0.715 | 0.677 | 0.291 | 0.213 | 0.131 | 0.896 | 0.793 | 0.956 | 0.651 | 0.511 | 0.801 | 0.605 | 0.844 | 0.408 | 0.156 |  | 0.908 | 0.45 | 0.411 | 0.231 | 1.02 | 0.793 | 0.923 | 0.951 | 0.893 | 0.912 | 1.11 | 0.51 | 0.762
NCI-H441 | 1.12 | 0.9 | 0.804 | 0.883 | 0.776 | 0.977 | 0.747 | 0.288 | 0.26 | 0.13 | 0.954 | 1.01 | 0.924 | 0.4 | 0.0254 | 1.01 | 0.813 | 0.719 | 0.598 | 0.352 | 0.962 | 0.973 | 0.965 | 0.365 | 0.367 | 1.01 | 0.768 | 0.95 | 0.867 | 0.949 | 0.93 | 0.919 | 0.895 | 0.766
NCI-H2347 | 0.911 | 0.957 | 0.828 | 0.962 | 0.986 | 0.973 | 0.952 | 0.726 | 0.52 | 0.459 | 1.03 | 0.866 | 0.96 | 0.776 | 0.844 | 0.992 | 0.771 | 0.886 | 0.709 | 0.518 | 1.07 | 0.914 | 0.825 | 0.658 | 0.661 | 1.08 | 0.894 | 0.958 | 1.09 | 0.95 | 0.997 | 1.17 | 0.939 | 1
HARA | 0.812 | 0.995 | 0.876 | 0.952 | 0.908 | 0.796 | 0.46 | 0.197 | 0.188 | 0.0932 | 0.909 | 0.862 | 0.984 | 0.6 | 0.0433 | 0.867 | 0.569 | 0.533 | 0.322 | 0.288 | 0.788 | 0.716 | 0.397 | 0.24 | 0.221 | 1.01 | 0.737 | 0.859 | 0.833 | 0.928 | 0.963 | 0.995 | 0.937 | 0.976
NCI-H322M |  | 0.932 | 1.02 | 0.948 | 0.705 | 0.957 | 0.889 | 0.762 | 0.612 | 0.439 | 0.894 | 0.85 | 0.899 | 0.911 | 0.153 | 0.917 | 1.05 | 0.822 | 0.57 | 0.437 | 0.877 | 0.794 | 0.628 | 0.475 | 0.336 | 0.976 | 0.842 | 0.853 | 1.26 | 0.948 | 0.929 | 0.972 | 0.791 | 0.902
NCI-H1355 | 0.968 | 0.964 | 0.954 | 0.956 | 0.907 | 0.982 | 0.91 | 0.517 | 0.272 | 0.227 | 0.963 | 0.95 | 0.949 | 0.735 | 0.0943 | 0.963 | 0.951 | 0.917 | 0.629 | 0.535 | 0.89 | 0.922 | 0.758 | 0.489 | 0.302 | 0.995 | 0.874 | 0.939 | 0.907 | 0.941 | 0.938 | 1.05 | 0.702 | 0.897
NCI-H520 | 0.993 | 0.978 | 0.903 | 0.96 | 0.972 | 0.853 | 0.973 | 0.489 | 0.277 | 0.169 | 1.05 | 0.952 | 1.04 | 0.77 | 0.139 | 0.954 | 1.07 | 0.905 | 0.533 | 0.458 | 0.94 | 1.04 | 1.13 | 0.741 | 0.657 | 1.04 | 1 | 1.03 | 1.07 | 0.906 | 0.922 | 0.884 | 0.684 | 0.859

— the supplement of paper PMC10307832
